Active and inactive are the calls of the source.
Assays:
[1] = biological target: Serine/threonine-protein phosphatase (Homo sapiens, UniProt Q9BPW0); assay: inhibition of protein phosphatase 5 activity – biochemical, fluorescence, dose response (AID 2395)
[2] = biological target: T1, Sentrin-specific protease 6 (Homo sapiens, UniProt Q9GZR1); assay: SAR Analysis of small molecule inhibitors of Sentrin-specific protease 6 (SENP6) using a Luminescent assay. [Related pubchem assays (depositor defined):AID2582, AID2599]; type: functional
T1 sequence (Q9GZR1 whole entry): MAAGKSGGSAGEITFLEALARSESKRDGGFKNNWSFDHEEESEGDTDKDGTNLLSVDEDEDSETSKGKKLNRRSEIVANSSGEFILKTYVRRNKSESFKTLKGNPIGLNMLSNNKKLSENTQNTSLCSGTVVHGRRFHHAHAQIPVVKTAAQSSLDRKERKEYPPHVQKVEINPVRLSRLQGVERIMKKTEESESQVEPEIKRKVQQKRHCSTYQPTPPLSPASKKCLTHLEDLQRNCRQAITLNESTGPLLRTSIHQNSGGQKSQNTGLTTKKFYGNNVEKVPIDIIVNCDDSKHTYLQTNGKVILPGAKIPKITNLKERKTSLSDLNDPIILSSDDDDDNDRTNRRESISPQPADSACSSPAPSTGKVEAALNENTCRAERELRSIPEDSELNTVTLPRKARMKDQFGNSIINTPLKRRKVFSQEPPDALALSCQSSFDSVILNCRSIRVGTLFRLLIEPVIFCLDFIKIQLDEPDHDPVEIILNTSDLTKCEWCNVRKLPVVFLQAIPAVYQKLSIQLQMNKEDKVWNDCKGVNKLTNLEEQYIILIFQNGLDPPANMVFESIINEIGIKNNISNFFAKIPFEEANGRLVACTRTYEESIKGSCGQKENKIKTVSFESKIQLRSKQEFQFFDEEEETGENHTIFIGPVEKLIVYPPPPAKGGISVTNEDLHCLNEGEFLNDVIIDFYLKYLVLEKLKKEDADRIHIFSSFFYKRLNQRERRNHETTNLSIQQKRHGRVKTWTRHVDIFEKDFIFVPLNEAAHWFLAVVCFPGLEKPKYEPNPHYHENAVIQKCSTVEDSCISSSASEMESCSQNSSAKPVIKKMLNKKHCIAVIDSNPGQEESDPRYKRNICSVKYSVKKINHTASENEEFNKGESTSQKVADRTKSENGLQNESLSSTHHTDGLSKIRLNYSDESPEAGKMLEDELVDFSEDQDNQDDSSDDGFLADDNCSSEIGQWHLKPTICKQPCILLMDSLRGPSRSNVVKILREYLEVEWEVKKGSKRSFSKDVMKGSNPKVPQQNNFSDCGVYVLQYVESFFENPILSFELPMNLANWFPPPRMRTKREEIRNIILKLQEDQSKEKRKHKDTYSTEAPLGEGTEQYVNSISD

[3] = biological target: Delta-type opioid receptor (Homo sapiens, UniProt P41143); assay: HTS Image-Based Screen for Antagonists of the DOR Receptor. [Related pubchem assays (depositor defined):AID1777, AID1785, AID1786, AID2133]; type: functional;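 further: U2OS cells expressing DOR stimulated with 100 nM SNC80 agonist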
Chain of Delta-type opioid receptor (P41143 whole entry): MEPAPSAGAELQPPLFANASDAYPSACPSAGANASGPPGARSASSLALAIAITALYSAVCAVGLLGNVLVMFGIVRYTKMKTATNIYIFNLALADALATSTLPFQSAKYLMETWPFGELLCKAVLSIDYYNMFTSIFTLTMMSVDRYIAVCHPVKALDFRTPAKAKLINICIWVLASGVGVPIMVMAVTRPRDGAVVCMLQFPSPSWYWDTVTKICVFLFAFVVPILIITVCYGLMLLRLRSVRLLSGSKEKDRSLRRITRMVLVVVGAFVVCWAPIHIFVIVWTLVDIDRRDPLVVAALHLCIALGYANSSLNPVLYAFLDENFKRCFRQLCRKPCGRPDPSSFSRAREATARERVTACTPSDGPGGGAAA

[4] = Luminescence Cell-Based Dose Response HTS to Identify Inhibitors of 5'UTR Stem-Loop Driven Prion Protein mRNA Translation in H4 Neuroglioblastoma Cells. [Related pubchem assays: 1827 (Project Summary), 1813 (Primary HTS)]; type: functional
[5] = Trypanosoma cruzi growth suppression in host cells – NIH3T3 host cells, beta-gal luminescence, confirmation (AID 2044); type: functional, cell-based;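 further: intracellular parasites grown in NIH/3T3 mouse fibroblasts as host cells; luminescent beta-galactosidase reporter signal from transgenic T. cruzi replicating inside host cells; inhibitors lower the luminescence signal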
[6] = biological target: Kappa-type opioid receptor (Homo sapiens, UniProt P41145); type: functional
Chain of Kappa-type opioid receptor (P41145 whole entry): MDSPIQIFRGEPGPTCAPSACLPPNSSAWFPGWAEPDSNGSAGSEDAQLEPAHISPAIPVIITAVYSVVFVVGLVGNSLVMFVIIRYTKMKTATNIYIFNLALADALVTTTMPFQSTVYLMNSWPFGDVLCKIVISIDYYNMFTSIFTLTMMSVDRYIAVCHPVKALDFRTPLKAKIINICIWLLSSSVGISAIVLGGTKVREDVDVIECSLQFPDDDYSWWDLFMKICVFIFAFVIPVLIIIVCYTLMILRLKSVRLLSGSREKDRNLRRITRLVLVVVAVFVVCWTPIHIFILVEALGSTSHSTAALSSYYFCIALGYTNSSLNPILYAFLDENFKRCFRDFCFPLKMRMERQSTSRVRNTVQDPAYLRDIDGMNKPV

[7] = biological target: T2, Protein RecA (Mycobacterium tuberculosis, UniProt P9WHJ3); assay: Fluorescence Cell-Free Homogeneous Dose Retest to Identify Inhibitors of RecA-Intein Splicing Activity. [Related pubchem assays (depositor defined):AID2097, AID2223, AID489010, AID492950]; type: functional
T2 sequence (P9WHJ3 whole entry): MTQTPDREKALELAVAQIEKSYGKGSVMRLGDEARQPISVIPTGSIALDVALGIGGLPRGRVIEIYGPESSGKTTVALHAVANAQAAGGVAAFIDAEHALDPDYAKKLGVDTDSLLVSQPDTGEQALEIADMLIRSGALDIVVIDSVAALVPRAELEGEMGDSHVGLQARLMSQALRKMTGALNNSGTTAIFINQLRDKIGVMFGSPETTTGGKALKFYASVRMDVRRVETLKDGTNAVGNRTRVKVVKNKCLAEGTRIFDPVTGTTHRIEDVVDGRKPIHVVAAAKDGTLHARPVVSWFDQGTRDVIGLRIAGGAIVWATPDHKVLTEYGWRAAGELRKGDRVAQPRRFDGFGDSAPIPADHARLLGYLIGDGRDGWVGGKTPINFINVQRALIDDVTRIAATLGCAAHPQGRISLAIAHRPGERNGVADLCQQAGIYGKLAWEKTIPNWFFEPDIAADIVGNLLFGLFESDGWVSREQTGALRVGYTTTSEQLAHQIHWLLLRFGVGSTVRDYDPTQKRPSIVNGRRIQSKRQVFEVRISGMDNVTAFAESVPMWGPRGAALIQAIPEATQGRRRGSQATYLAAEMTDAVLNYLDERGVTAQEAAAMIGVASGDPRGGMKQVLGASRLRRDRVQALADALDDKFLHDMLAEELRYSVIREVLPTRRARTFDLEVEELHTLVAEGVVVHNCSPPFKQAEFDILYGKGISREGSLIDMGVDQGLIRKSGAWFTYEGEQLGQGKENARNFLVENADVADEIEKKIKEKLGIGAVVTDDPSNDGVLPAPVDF

[8] = NIH-3T3 fibroblast cytotoxicity, dose response, cytotoxicity control, cell-based, fluorescence, Alamar Blue, secondary assay (AID 2327); type: functional;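 further: NIH-3T3 mouse fibroblasts cultured with fluconazole at 8 µg/mL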
[9] = biological target: T3, Microphthalmia-associated transcription factor (Homo sapiens, UniProt O75030); assay: reducers of TRPM1 reporter luminescence, concentration series – cell-based, SK-MEL-5, cherry-picked, set 3, MITF inhibitor project, dose response (AID 493073); type: functional;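 further: SK-MEL-5 melanoma cells with luciferase driven by the MITF target TRPM1 promoter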
T3 sequence (O75030 whole entry): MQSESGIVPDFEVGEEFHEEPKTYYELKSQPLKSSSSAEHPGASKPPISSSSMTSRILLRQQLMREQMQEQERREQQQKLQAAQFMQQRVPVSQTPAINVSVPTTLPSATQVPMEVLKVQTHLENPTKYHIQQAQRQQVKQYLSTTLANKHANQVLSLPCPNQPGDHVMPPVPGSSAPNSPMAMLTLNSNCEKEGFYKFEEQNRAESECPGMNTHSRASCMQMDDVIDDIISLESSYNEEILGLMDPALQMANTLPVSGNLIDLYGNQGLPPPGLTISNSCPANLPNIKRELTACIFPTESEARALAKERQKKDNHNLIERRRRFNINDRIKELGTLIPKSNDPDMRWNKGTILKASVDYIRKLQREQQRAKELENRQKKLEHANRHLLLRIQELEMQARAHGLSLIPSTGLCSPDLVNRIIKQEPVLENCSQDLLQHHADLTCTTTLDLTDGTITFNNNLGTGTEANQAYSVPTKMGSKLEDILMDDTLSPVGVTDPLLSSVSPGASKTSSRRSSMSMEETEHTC

Chain of Serine/threonine-protein phosphatase (Q9BPW0 whole entry): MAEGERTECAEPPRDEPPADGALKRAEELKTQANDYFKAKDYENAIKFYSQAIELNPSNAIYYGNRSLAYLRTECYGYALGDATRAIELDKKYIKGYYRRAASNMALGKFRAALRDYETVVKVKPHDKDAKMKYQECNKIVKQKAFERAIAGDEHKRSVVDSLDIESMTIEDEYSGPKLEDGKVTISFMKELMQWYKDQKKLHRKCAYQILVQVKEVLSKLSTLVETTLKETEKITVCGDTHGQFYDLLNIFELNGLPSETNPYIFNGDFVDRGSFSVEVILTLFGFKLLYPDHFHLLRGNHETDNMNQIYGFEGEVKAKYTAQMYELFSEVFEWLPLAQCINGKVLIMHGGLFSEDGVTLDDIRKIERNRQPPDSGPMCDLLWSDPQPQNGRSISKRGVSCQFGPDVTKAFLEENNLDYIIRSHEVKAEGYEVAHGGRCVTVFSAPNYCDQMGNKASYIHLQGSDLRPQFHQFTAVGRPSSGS

Oc1ccc(/C=N\Nc2cc(N3CCOCC3)nc(N3CCOCC3)n2)c(O)c1
IC50 [1]: 5.72 µM (active) | IC50 [2]: 31.8 µM (active)

COc1cc(NC(=O)Cn2ncc(Cl)c(Cl)c2=O)c(C)cc1[N+](=O)[O-]
IC50 [3]: > 32 µM (inactive) | EC50 [4]: 9.83 µM (active) | EC50 [5]: 2.39 µM (active) | IC50 [6]: 13.9 µM | EC50 [7]: 8.7 µM (active)

Cc1ccc(C)c(S(=O)(=O)N2CCN(Cc3ccc(O)c4ncccc34)CC2)c1
EC50 [8]: 81.5 µM (active) | AC50 [9]: 4.44 µM (active)

— ChEMBL document CHEMBL1201862, “PubChem BioAssay data set” (2004)
